Data taken from US9278091B2, “Compounds for the treatment of Clostridium difficile associated disease” (Summit Therapeutics PLC, priority 2010, dated 2016).

Legend:
Assay type in all cases: cell-based
[1] = tested on: Clostridium difficile ATCC700057; experiment: MIC by broth microdilution (CLSI) against Clostridium difficile; settings: Clostridioides difficile, read-out: minimum inhibitory concentration (MIC) C. difficile
Experimental: (§1) The term “minimum inhibitory concentration” or “MIC” defines the lowest concentration of a test compound that is needed to inhibit growth of a bacterial isolate in vitro. A common method for determining the MIC of an antibiotic is to prepare several tubes containing serial dilutions of the test compound that are then inoculated with the bacterial isolate of interest.
(§2) MIC data were determined by broth microdilution according to CLSI protocols described in Methods for Antimicrobial Susceptibility Testing of Anaerobic Bacteria; Approved Standard-Seventh Edition [M11-A7, Vol. 27, No 2, January 2007] and Methods for Dilution Antimicrobial Susceptibility Tests for Bacteria That Grow Aerobically; Approved Standard—Seventh Edition [M7-A7, Vol. 26, No 2, January 2006].

[2] = tested on: Bacteroides fragilis ATCC 25285; experiment: MIC by broth microdilution (CLSI) against B. fragilis; settings: ATCC25285, read-out: minimum inhibitory concentration (MIC) B. fragilis
Experimental: as §1, §2
(§3) The bacterial strains used were: • Bacteroides fragilis ATCC 25285 • Escherichia coli ATCC25922 • Lactobacillus paracasei Z1 83 • Bifidobacterium dentium NCTC 11816 • B. adolescentis MWR144 • Staphylococcus aureus ATCC29213 • Enterococcus faecalis ATCC29212

[3] = tested on: Escherichia coli ATCC25922; experiment: MIC by broth microdilution (CLSI) against E. coli; settings: read-out: minimum inhibitory concentration (MIC) E. coli
Experimental: as §1, §2, §3

[4] = tested on: Lactobacillus paracasei Z1 83; experiment: MIC by broth microdilution (CLSI) against L. paracasei; settings: Lacticaseibacillus paracasei, Z183, read-out: minimum inhibitory concentration (MIC) L. paracasei
Experimental: as §1, §2, §3

[5] = tested on: Bifidobacterium dentium NCTC 11816; experiment: MIC by broth microdilution (CLSI) against B. dentium; settings: NCTC11816, read-out: minimum inhibitory concentration (MIC) B. dentium
Experimental: as §1, §2, §3

B. adolescentis MWR144 = experiment: MIC by broth microdilution (CLSI) against B. adolescentis; settings: Bifidobacterium adolescentis, read-out: minimum inhibitory concentration (MIC) B. adolescentis
Experimental: as §1, §2, §3

[6] = tested on: Staphylococcus aureus ATCC29213; experiment: MIC by broth microdilution (CLSI) against S. aureus; settings: read-out: minimum inhibitory concentration (MIC) S. aureus
Experimental: as §1, §2, §3

[7] = tested on: Enterococcus faecalis ATCC29212; experiment: MIC by broth microdilution (CLSI) against E. faecalis; settings: read-out: minimum inhibitory concentration (MIC) E. faecalis
Experimental: as §1, §2, §3

SMILES | MIC [1] | MIC [2] | MIC [3] | MIC [4] | MIC [5] | MIC (B. adolescentis MWR144) | MIC [6] | MIC [7]
c1cc(-c2nc3ccc(-c4ccc5[nH]c(-c6ccc7[nH]ccc7c6)nc5c4)cc3[nH]2)ccn1 [Example 6, 2-(1H-indol-5-yl)-2′-(pyridin-4-yl)-1H,3′H-5,5′-bibenzo[d]imidazole] | ≤ 1 µg/mL | ≥ 64 µg/mL | ≥ 64 µg/mL | ≥ 64 µg/mL | ≥ 64 µg/mL | ≤ 32 µg/mL | ≤ 32 µg/mL | ≥ 64 µg/mL
c1ccc2sc(-c3nc4cc(-c5ccc6[nH]c(-c7ccncc7)nc6c5)ccc4[nH]3)cc2c1 [Example 2, 2-(benzo[b]thiophen-2-yl)-2′-(pyridin-4-yl)-1H,1′H-5,5′-bibenzo[d]imidazole] | ≤ 4 µg/mL | ≥ 64 µg/mL | ≥ 64 µg/mL | ≥ 64 µg/mL | ≥ 64 µg/mL | ≥ 64 µg/mL | ≥ 64 µg/mL | ≥ 64 µg/mL
c1ccc2oc(-c3nc4cc(-c5ccc6[nH]c(-c7ccncc7)nc6c5)ccc4[nH]3)cc2c1 [Example 10, 2-(benzofuran-2-yl)-2′-(pyridin-4-yl)-1H,1′H-5,5′-bibenzo[d]imidazole] | ≤ 1 µg/mL | ≥ 64 µg/mL | ≥ 64 µg/mL | ≥ 64 µg/mL | ≥ 64 µg/mL | ≤ 32 µg/mL | ≤ 32 µg/mL | ≥ 64 µg/mL
c1cncc(-c2nc3cc(-c4ccc5[nH]c(-c6cc7cccnc7s6)nc5c4)ccc3[nH]2)c1 [Example 13, 2-(2′-(pyridin-3-yl)-1H,1′H-[5,5′-bibenzo[d]imidazol]-2-yl)thieno[2,3-b]pyridine] | ≤ 1 µg/mL | ≥ 64 µg/mL | ≥ 64 µg/mL | ≥ 64 µg/mL | ≥ 64 µg/mL | ≥ 64 µg/mL | ≥ 64 µg/mL | ≥ 64 µg/mL
c1cc(-c2nc3cc(-c4ccc5[nH]c(-c6cc7ccncc7s6)nc5c4)ccc3[nH]2)ccn1 [Example 11, 2-(2′-(pyridin-4-yl)-1H,1′H-[5,5′-bibenzo[d]imidazol]-2-yl)thieno[2,3-c]pyridine] | ≤ 1 µg/mL | ≥ 64 µg/mL | ≥ 64 µg/mL | ≥ 64 µg/mL | ≥ 64 µg/mL | ≥ 64 µg/mL | ≥ 64 µg/mL | ≥ 64 µg/mL
c1cc(-c2nc3ccc(-c4ccc5[nH]c(-c6ccc7sccc7c6)nc5c4)cc3[nH]2)ccn1 [Example 5, 2-(benzo[b]thiophen-5-yl)-2′-(pyridin-4-yl)-1H,3′H-5,5′-bibenzo[d]imidazole] | ≤ 1 µg/mL | ≥ 64 µg/mL | ≥ 64 µg/mL | ≥ 64 µg/mL | ≥ 64 µg/mL | ≤ 32 µg/mL | ≥ 64 µg/mL | ≤ 32 µg/mL
c1cc(-c2nc3ccc(-c4ccc5[nH]c(-c6ccc7[nH]cnc7c6)nc5c4)cc3[nH]2)ccn1 [Example 4, 6-(2′-(pyridin-4-yl)-1H,3′H-5,5′-bibenzo[d]imidazol-2-yl)benzo[d]imidazole] | ≤ 1 µg/mL | ≥ 64 µg/mL | ≥ 64 µg/mL | ≥ 64 µg/mL | ≥ 64 µg/mL | ≥ 64 µg/mL | ≥ 64 µg/mL | ≥ 64 µg/mL
c1cc(-c2nc3cc(-c4ccc5[nH]c(-c6ccc7nccn7c6)nc5c4)ccc3[nH]2)ccn1 [Example 8, 2-(imidazo[1,2-a]pyridin-6-yl)-2′-(pyridin-4-yl)-1H,1′H-5,5′-bibenzo[d]imidazole] | ≤ 1 µg/mL | ≥ 64 µg/mL | ≥ 64 µg/mL | ≥ 64 µg/mL | ≥ 64 µg/mL | ≥ 64 µg/mL | ≥ 64 µg/mL | ≥ 64 µg/mL
c1cnc2sc(-c3nc4cc(-c5ccc6[nH]c(-c7ccncc7)nc6c5)ccc4[nH]3)cc2c1 [Example 1, 2-(2′-(pyridin-4-yl)-1H,1′H-5,5′-bibenzo[d]imidazol-2-yl)thieno[2,3-b]pyridine] | ≤ 1 µg/mL | ≥ 64 µg/mL | ≥ 64 µg/mL | ≥ 64 µg/mL | ≥ 64 µg/mL | ≤ 32 µg/mL | ≥ 64 µg/mL | ≥ 64 µg/mL
c1cc(-c2nc3ccc(-c4ccc5[nH]c(-c6ccc7c(c6)CCO7)nc5c4)cc3[nH]2)ccn1 [Example 7, 2-(2,3-dihydrobenzofuran-5-yl)-2′-(pyridin-4-yl)-1H,3′H-5,5′-bibenzo[d]imidazole] | ≤ 1 µg/mL | ≥ 64 µg/mL | ≥ 64 µg/mL | ≥ 64 µg/mL | ≥ 64 µg/mL | ≤ 4 µg/mL | ≥ 64 µg/mL | ≤ 4 µg/mL
c1cc(-c2nc3cc(-c4ccc5[nH]c(-c6ccc7c(c6)OCO7)nc5c4)ccc3[nH]2)ccn1 [Example 9, 2-(benzo[d][1,3]dioxol-5-yl)-2′-(pyridin-4-yl)-1H,1′H-5,5′-bibenzo[d]imidazole] | ≤ 1 µg/mL | ≥ 64 µg/mL | ≥ 64 µg/mL | ≥ 64 µg/mL | ≥ 64 µg/mL | ≥ 64 µg/mL | ≥ 64 µg/mL | ≥ 64 µg/mL
c1cncc(-c2nc3cc(-c4ccc5[nH]c(-c6ccc7nccn7c6)nc5c4)ccc3[nH]2)c1 [Example 12, 2-(imidazo[1,2-a]pyridin-6-yl)-2′-(pyridin-3-yl)-1H,1′H-5,5′-bibenzo[d]imidazole] | ≤ 1 µg/mL | ≥ 64 µg/mL | ≥ 64 µg/mL | ≥ 64 µg/mL | ≥ 64 µg/mL | ≥ 64 µg/mL | ≥ 64 µg/mL | ≥ 64 µg/mL
c1cc(-c2nc3cc(-c4ccc5[nH]c(-c6ccc7occc7c6)nc5c4)ccc3[nH]2)ccn1 [Example 3, 2-(benzofuran-5-yl)-2′-(pyridin-4-yl)-1H,1′H-5,5′-bibenzo[d]imidazole] | ≤ 1 µg/mL | ≥ 64 µg/mL | ≥ 64 µg/mL | ≤ 32 µg/mL | ≤ 32 µg/mL | ≤ 4 µg/mL | ≤ 1 µg/mL | ≤ 1 µg/mL
